According to US8354400B2, “Benzoxazole compounds and methods of use” (Eisai R&D Co., Ltd., priority 2008, dated 2013):
“Also recorded” adds a separate entry of the source.

What was measured:
MRL/lpr mice = assay: MRL/lpr spontaneous lupus model, Experiment 2; type: in vivo; details: for serum anti-dsDNA levels: MRL/lpr mice, Experiment 2, doses per Table 4
Procedure: In this SLE experiment, dosing, groups were as described in Table 4 below. Two dose levels of Compound 23 were compared to HCQ and cyclophosphamide (Cytoxan®). HCQ and cyclophosphamide are currently used in the treatment of cutaneous and systemic lupus, respectively. […] Sera were assayed at a 1:600 dilution in PBS. (Mouse Anti-dsDNA Total Ig Qualitative ELISA kits, Alpha Diagnostic International). Dosing was conducted by either oral (p.o.) or intraperitoneal (i.p.) administration.

[1] = system: dissociated mouse splenocytes; assay: Spleen CellTiter-Glo viability assay; type: cell-based; details: Splenocyte, 72 hours, viability (ATP)
Procedure: (3) Spleen CT Glo Assay: To determine if compounds had adverse effects on living cells, dissociated mouse splenocytes were incubated with some of the compounds for 72 hours. At the end of the incubation Celliter-Glo™ reagent (Promega Corporation, Madison, Wis.) was added and luminescence was read per manufacturer's instructions. This reagent measures ATP as an indication of cell metabolism. Dead cells will not produce signal. IC50 is defined as the concentration of compound that suppresses viability to 50% of that observed in the absence of compound. The few compounds that measurably affected viability did so at concentrations far above those that affected cytokine release in response to TLR9 stimulation.

human TLR9 = target: T1, human TLR9 (Homo sapiens, UniProt Q9NR96); assay: Primary assay: HEK/TLR9 activation (NF-kB luciferase reporter, Oligo CpG 2006 stimulation); type: cell-based; details: HEK293 transfected with human TLR9 and NF-kB luciferase; compound 30 min before Oligo CpG 2006; overnight; read-out: HEK/TLR9 IC50
T1 construct: expressed in transfected cells; host or cells: HEK293 (ATCC No. CRP-1573 [sic])
T1 sequence (Q9NR96 26-1032): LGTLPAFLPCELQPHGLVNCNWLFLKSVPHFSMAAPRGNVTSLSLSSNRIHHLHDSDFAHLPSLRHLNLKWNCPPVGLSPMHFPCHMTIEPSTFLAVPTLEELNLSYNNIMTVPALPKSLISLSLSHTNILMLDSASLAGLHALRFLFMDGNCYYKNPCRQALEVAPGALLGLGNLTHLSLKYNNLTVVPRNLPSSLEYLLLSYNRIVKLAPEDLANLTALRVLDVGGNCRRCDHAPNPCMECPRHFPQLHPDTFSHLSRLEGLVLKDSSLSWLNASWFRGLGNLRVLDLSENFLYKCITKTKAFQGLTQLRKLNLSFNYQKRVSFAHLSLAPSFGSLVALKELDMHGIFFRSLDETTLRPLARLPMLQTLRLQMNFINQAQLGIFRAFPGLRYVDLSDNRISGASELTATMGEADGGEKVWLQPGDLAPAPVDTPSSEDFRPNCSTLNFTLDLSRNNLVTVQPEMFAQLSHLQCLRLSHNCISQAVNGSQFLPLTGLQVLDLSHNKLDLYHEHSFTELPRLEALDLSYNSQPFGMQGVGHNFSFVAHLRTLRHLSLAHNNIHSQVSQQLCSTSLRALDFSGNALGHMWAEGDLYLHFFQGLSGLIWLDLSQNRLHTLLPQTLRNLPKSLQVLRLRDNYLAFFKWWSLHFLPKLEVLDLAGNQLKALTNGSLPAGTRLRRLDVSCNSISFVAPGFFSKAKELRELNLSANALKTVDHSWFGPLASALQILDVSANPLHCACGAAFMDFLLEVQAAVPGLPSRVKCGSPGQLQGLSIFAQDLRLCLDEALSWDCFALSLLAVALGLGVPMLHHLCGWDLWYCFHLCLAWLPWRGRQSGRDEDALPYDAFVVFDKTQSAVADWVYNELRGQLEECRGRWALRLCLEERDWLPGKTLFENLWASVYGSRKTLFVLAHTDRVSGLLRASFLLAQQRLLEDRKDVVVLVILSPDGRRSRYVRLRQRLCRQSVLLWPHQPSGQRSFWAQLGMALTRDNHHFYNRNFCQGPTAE
Source text: A. Primary Assay. The primary assay involved transfecting human embryonic kidney epithelial (HEK) cells with TLR9. More specifically, HEK293 […] cells (ATCC No. CRP-1573, American Type Culture Collection, Manassas, Va.) were transfected with pcDNA3.1D/V5-His-TOPO® plasmid (Invitrogen, Carlsbad, Calif.) encoding human TLR9 (directly inserted as a Tag polymerase-amplified PCR product) and firefly luciferase under the control of three NF-kB binding sites contained in the E-selectin-1 promoter, which was cloned into a pGL3-Enhancer Vector (Promega Corp, Madison, Wis.). Each compound was added to cells 30 min. before stimulation with Oligo CpG 2006, a synthetic phosphorothioate oligonucleotide (Hartmann et al., J Immunol. 164:1617-24 (2000)), with nucleotide sequence 5′-TCGTCGTTTTGTCGTTTTGTCGTT-3′ (SEQ ID NO:1). The cells were incubated overnight at 37° C. The luciferase substrate Steady-Glo® (Promega) was added to the wells, and luminescence was measured to determine the extent of TLR9-driven gene activation. The luminescence data was used to calculate an IC50 for each sample. The IC50 is defined as the concentration of compound that suppresses the luminescence to 50% of that observed in the absence of compound, in other words, with full stimulation.

[2] = system: serum IL-6 after s.c. oligo CpG 1668 challenge; assay: In vivo short term CpG stimulation assay (serum IL-6); parameters: species or system mice; details: Mus musculus, po, 2 h, mice, oral in water, 20 mg/kg, s.c. 30 micrograms oligo CpG 1668 within 90 minutes, serum two hours later; repeat assays separated by commas; read-out: Percent short-term IL-6 suppression
Procedure: Short Term CpG Stimulation Assay: Compounds identified as having potency in the HEK/TLR9 and splenocyte CpG 1668 assays described in Example 9, above, were tested in an in vivo short term CpG stimulation assay. Mice were orally administered compound in water, and challenged within 90 minutes by subcutaneous (s.c.) injection of 30 micrograms of oligo CpG 1668. Two hours later serum was taken and assayed for IL-6 using ELISA analysis. Results from assays repeated on different dates are set forth as multiple numbers separated by commas.

[3] = system: mouse spleen IL-6 production in response to Oligo CpG 1668; assay: Splenocyte CpG 1668 assay (IL-6 ELISA); type: cell-based; details: mouse splenocytes, Oligo CpG 1668, 72 hrs
Procedure: (2) Splenocyte CpG 1668 Assay: Some of the compounds tested in the primary assay were also assayed for suppression of mouse spleen IL-6 production in response to stimulation with Oligo CpG 1668, a synthetic phosphorothioate oligonucleotide (Krieg et al. Nature. 374:546-9 (1995)), with nucleotide sequence [NT] (SEQ ID NO:2). Each compound was added to dissociated splenocytes before addition of stimulatory oligonucleotide. Cells were stimulated in culture for 72 hrs and the supernatant was removed for ELISA analysis of IL-6 level. Here the IC50 is defined as the concentration of compound that suppresses cytokine production to 50% of that observed in the absence of compound, i.e., full stimulation.

human TLR7 = target: T2, human TLR7 (Homo sapiens, UniProt Q9NYK1); assay: HEK/TLR7 activation assay (R848 stimulation); type: cell-based; details: HEK cells transfected with human TLR7
T2 construct: expressed in transfected cells; host or cells: HEK cell line (HEK293, as in the primary assay)
T2 sequence (Q9NYK1 27-1049): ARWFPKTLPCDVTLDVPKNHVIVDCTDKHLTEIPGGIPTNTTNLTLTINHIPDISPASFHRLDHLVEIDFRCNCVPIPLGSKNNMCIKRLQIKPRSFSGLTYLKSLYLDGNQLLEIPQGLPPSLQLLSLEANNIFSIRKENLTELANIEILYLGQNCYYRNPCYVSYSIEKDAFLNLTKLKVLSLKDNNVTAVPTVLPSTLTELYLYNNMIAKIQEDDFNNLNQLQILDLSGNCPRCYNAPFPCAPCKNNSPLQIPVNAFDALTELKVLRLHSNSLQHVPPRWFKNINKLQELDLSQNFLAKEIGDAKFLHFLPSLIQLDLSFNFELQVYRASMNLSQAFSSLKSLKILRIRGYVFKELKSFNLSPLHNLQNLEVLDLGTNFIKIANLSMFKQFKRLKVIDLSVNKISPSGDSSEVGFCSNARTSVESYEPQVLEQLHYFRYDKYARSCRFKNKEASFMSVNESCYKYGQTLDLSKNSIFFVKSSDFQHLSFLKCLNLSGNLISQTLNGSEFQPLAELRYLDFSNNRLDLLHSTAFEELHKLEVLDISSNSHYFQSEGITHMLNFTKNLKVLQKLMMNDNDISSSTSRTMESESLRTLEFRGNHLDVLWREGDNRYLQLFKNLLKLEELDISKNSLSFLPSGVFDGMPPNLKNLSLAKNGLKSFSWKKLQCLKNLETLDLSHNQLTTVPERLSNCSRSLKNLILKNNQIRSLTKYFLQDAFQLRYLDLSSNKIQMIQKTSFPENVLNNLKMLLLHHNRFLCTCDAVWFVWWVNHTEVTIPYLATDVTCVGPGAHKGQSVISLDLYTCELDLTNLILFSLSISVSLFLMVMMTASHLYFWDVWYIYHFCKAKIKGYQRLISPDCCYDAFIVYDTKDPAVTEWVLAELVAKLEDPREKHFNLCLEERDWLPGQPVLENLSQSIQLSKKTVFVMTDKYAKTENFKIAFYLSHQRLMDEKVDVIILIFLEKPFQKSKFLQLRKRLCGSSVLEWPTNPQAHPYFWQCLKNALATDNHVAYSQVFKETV
Procedure: (1) HEK/TLR7Activation Assay: The same compounds were tested in the same way as the primary assay with the following differences. The plasmid used to transfect the HEK cell line encoded for human TLR7 instead of TLR9, and R848 was used to stimulate the cells instead of Oligo CpG 2006.

| IC50 (human TLR9) | IC50 [3] | IC50 (human TLR7) | SMILES | serum anti-dsDNA levels (MRL/lpr mice) | IC50 [1] | inhibition in vivo at 20 mg/kg [2] | difference in serum anti-dsDNA vs. vehicle by ANOVA (MRL/lpr mice; 8 and 12 week dosing points) |
| --- | --- | --- | --- | --- | --- | --- | --- |
| – | – | – | CCN(CCO)CCCC(C)Nc1ccnc2cc(Cl)ccc12 (centres unmarked) [hydroxychloroquine] | no detectable effect | – | – | – |
| 12.4 nM | 42 nM | – | COC[C@H]1CCCN1CCCOc1ccc(-c2nc3ccc(OCCCN4CCC[C@@H]4COC)cc3o2)cc1 [Compound 26] | – | > 10 µM | 81% | – |
| – | – | – | O=P1(N(CCCl)CCCl)NCCCO1 (centres unmarked) [Cyclophosphamide, cyclophosphamide] | consistent suppression; also recorded: suppressed anti-dsDNA | – | – | statistically significant |
| 4 nM | – | 800 nM | CN(C)CCCOc1ccc2nc(-c3ccc(OCCCN(C)CCCN(C)C)cc3)oc2c1 [Compound 34] | – | – | 26% | – |
| 29 nM | 40 nM | 1400 nM | CN(C)CCCOc1ccc2nc(-c3ccc(OCCCN(C)CCOCCOCCN(C)C)cc3)oc2c1 [Compound 35] | – | – | 38% | – |
